Measured values published in patent US8633322B2, “Alkynyl derivatives useful as DPP-1 inhibitors” (Janssen Pharmaceutica NV, priority 2009, dated 2014).

Target: T1, recombinant human DPP-1 (Cathepsin C) (Homo sapiens, UniProt P53634)
T1 construct: made in house
Assay: DPP-1 Inhibition Assay (In Vitro), fluorogenic substrate GR-AMC
Assay type: biochemical
Settings: room temperature; 0.15 nM DPP-1, 10 uM GR-AMC, pH 7.0; average where tested multiple times
Description: Test compounds were assessed for DPP-1 (Cathepsin C) inhibitory activity using a fluorogenic substrate, GR-AMC (Glycine-Arginine-amino-4-methylcoumarin, Bachem, 1-1215). The amount of amino-methylcoumarin released is proportional to the DPP-1 activity, and the reaction is monitored kinetically with a Molecular Devices plate reader using black 96-well plates.
All compounds were tested under room temperature conditions. The assay buffer consisted of 50 mM HEPES, pH 7.0, 100 mM NaCl, 2 mM glutathione (GSH), and 0.002% TWEEN 20. GSH and TWEEN 20 were added to the buffer fresh daily. Just prior to use, an in-house preparation of recombinant human DPP-1 (240 μM stock, MW 49.6 kD) was diluted 600-fold in assay buffer containing fresh 2 mM dithiothreitol (DTT) to activate the enzyme, then diluted into assay buffer (without DTT) 133-fold for a DPP-1 working solution of 3 nM. Test compounds were diluted in DMSO for 20× their final assay concentrations.
Additions to a 96-well black Costar 3915 plates were as follows: 90 μL of 11 μM GR-AMC, 5 μL test compound (followed by mixing), and 5 μL 3 nM DPP1 to start the reaction. Fluorescent reactions were monitored kinetically at 360 nm excitation, 440 nm emission on a Molecular Devices Spectramax XPS reader. The Softmax Pro software of the reader determined the initial velocity of the selected data (the first 3-5 minutes of the reaction), and the best linear regression fit of the initial kinetic data. Final assay conditions were 0.15 nM DPP-1, 10 uM GR-AMC, 50 mM HEPES, pH 7.0, 100 mM NaCl, 2 mM GSH, 0.002% TWEEN 20, 1 uM DTT, 5.0% DMSO. Initial velocity rates were plotted vs. test compound concentration by use of a four-parameter logistics equation (nonlinear regression, sigmoidal dose-response (variable slope), with fixed Hill (1.0) using GraphPad Prism® software for determination of DPP-1 IC50. Within-run assay coefficient of variation (CV) was generally <10%; between-run CV <20%.
Representative compounds of the present invention were tested according to the procedure as described above, with results as listed in Table 2, below. Additionally, Table 2 below lists the measured mass for said representative compounds of the present invention, more particularly the mass of the MH^+ ion.

T1 sequence (P53634 25-463): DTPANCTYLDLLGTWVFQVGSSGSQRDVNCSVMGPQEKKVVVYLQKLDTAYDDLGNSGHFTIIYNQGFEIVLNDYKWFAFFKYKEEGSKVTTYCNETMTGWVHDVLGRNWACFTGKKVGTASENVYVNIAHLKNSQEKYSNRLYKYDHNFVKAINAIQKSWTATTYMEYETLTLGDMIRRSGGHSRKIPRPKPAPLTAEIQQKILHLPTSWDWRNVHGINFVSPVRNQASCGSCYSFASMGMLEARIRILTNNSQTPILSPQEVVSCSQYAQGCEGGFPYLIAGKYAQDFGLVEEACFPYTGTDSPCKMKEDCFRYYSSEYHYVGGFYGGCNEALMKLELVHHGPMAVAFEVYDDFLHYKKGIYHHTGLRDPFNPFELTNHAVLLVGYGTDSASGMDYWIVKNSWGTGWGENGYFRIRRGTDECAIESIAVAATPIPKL

Compound	IC50
CC[C@H](N)C(=O)NCCCC#Cc1c(F)ccc2ccccc12 [Compound 106]	6 µM
N[C@@H](Cc1cccnc1)C(=O)NCCCC#Cc1cccc(OC2CCNCC2)c1 [Compound 33]	15 µM
CC[C@H](N)C(=O)NCCCC#Cc1ccccc1OC [Compound 99]	12 µM
CC(C)C[C@H](N)C(=O)NCCCC#Cc1cccc(OC2CCNCC2)c1 [Compound 31]	30 µM
CC[C@H](N)C(=O)NCCCC#Cc1ccc(C)c2ccccc12 [Compound 83]	8.5 µM
CC[C@H](N)C(=O)NCCCC#Cc1ccc(F)c2ccccc12 [Compound 84]	7.2 µM
CCC[C@H](N)C(=O)NCCCC#Cc1cccc(OC2CCNCC2)c1 [Compound 18, (S)-2-amino-N-(5-(3-(piperidin-4-yloxy)phenyl)pent-4-ynyl)pentanamide]	1.7 µM
C#CC[C@H](N)C(=O)NCCCC#Cc1cccc(O[C@@H]2CCCNC2)c1 [Compound 79, (S)-2-amino-N-(5-(3-((R)-piperidin-3-yloxy)phenyl)pent-4-ynyl)pent-4-ynamide]	2.9 µM
CC[C@H](N)C(=O)NCCCC#Cc1ccc(C(C)C)cc1 [Compound 95]	1.2 µM
CC[C@H](N)C(=O)NCCCC#Cc1cc(OC)cc(OC)c1 [Compound 59]	12 µM
C#CC[C@H](N)C(=O)NCCCC#Cc1cc(OC)cc(OC2CCNCC2)c1 [Compound 7, (S)-2-amino-N-(5-(3-methoxy-5-(piperidin-4-yloxy)phenyl)pent-4-ynyl)pent-4-ynamide]	1.6 µM
C#CC[C@H](N)C(=O)NCCCC#Cc1cccc(O[C@H]2CCCNC2)c1 [Compound 85, (S)-2-amino-N-(5-(3-((S)-piperidin-3-yloxy)phenyl)pent-4-ynyl)pent-4-ynamide]	1.2 µM
CC[C@H](N)C(=O)NCCCC#Cc1ccc2c(c1)OCCO2 [Compound 97]	5 µM
CC[C@H](N)C(=O)NCCCC#Cc1ccc(F)c(F)c1 [Compound 39]	0.35 µM
N[C@@H](Cc1ccccn1)C(=O)NCCCC#Cc1cccc(OC2CCNCC2)c1 [Compound 90]	12 µM
CC[C@H](N)C(=O)NCCCC#Cc1ccc(OCc2ccccc2)cc1 [Compound 86]	2.4 µM
CC[C@H](N)C(=O)NCCCC#Cc1ccccc1C(F)(F)F [Compound 74]	26 µM
CC[C@H](N)C(=O)NCCCC#Cc1ccc2sccc2c1 [Compound 60]	6 µM
CC[C@H](N)C(=O)NCCCC#Cc1ccc2ccccc2c1 [Compound 73]	15 µM
N[C@@H](Cc1cccs1)C(=O)NCCCC#Cc1cccc(OC2CCNCC2)c1 [Compound 63, (S)-2-amino-N-(5-(3-(piperidin-4-yloxy)phenyl)pent-4-ynyl)-3-(thiophen-2-yl)propanamide]	0.15 µM
CC[C@H](N)C(=O)NCCCC#Cc1cncc2ccccc12 [Compound 89]	7.9 µM

Compound	IC50
CCCC[C@H](N)C(=O)NCCCC#Cc1cccc(OC2CCNCC2)c1 [Compound 12]	5.92 µM
C#CC[C@H](N)C(=O)NCCC#Cc1cccc(OC2CCNCC2)c1 [Compound 6, (S)-2-amino-N-(4-(3-(piperidin-4-yloxy)phenyl)but-3-ynyl)pent-4-ynamide]	2.43 µM
CC[C@H](N)C(=O)NCCCC#Cc1cccc(O[C@H]2CCCNC2)c1 [Compound 80, (S)-2-amino-N-(5-(3-((S)-piperidin-3-yloxy)phenyl)pent-4-ynyl)butanamide]	2.3 µM
CC[C@H](N)C(=O)NCCCC#Cc1c(C)cccc1C [Compound 49]	3.28 µM
CC[C@H](N)C(=O)NCCCC#Cc1cccc2cnccc12 [Compound 82]	17 µM
CC[C@H](N)C(=O)NCCCC#Cc1ccc(OC)cc1 [Compound 40]	0.214 µM
N[C@@H](CCO)C(=O)NCCCC#Cc1cccc(OC2CCNCC2)c1 [Compound 15, (S)-2-amino-4-hydroxy-N-(5-(3-(piperidin-4-yloxy)phenyl)pent-4-ynyl)butanamide]	2.5 µM
CC[C@H](N)C(=O)NCCCC#Cc1ccccc1C1CCCCC1 [Compound 75]	39 µM
CC[C@H](N)C(=O)NCCCC#Cc1c(O)ccc2ccccc12 [Compound 105]	> 10 µM
CC[C@H](N)C(=O)NCCCC#Cc1cccc(F)c1F [Compound 102]	6.1 µM
N[C@@H](Cc1c[nH]cn1)C(=O)NCCCC#Cc1cccc(OC2CCNCC2)c1 [Compound 20]	0.52 µM
C#CC[C@H](N)C(=O)NCCCC#Cc1cccc(-c2ccccc2)c1 [Compound 24]	0.4 µM
CC[C@@H](N)C(=O)NCCCC#Cc1cccc(OC)c1 [Compound 92]	17 µM
C=CCC[C@H](N)C(=O)NCCCC#Cc1cccc(OC2CCNCC2)c1 [Compound 8]	1.64 µM
C#CC[C@H](N)C(=O)NCCCC#Cc1cccc(OC2CCNCC2)c1 [Compound 3, (S)-2-amino-N-(5-(3-(piperidin-4-yloxy)phenyl)pent-4-ynyl)pent-4-ynamide]	0.39 µM
CC[C@H](N)C(=O)NCCCC#Cc1c(OC)ccc2ccccc12 [Compound 87]	13 µM
CC[C@H](N)C(=O)NCCCC#Cc1ccccc1 [Compound 98]	7.9 µM
CC[C@H](N)C(=O)NCCCC#Cc1cc(C)ccc1C [Compound 77]	33 µM
CC[C@H](N)C(=O)NCCCC#Cc1cccc(OC)c1 [Compound 35]	5.8 µM
CC[C@H](N)C(=O)NCCCC#Cc1c(C)cc(C)cc1C [Compound 55]	9.5 µM
CC[C@H](N)C(=O)NCCCC#Cc1ccc(NC(C)=O)cc1 [Compound 100]	6.3 µM

Compound	IC50
CC[C@H](N)C(=O)NCCCC#Cc1c(C)c(C)cc(C)c1C [Compound 76]	14 µM
NCCC[C@H](N)C(=O)NCCCC#Cc1cccc(OC2CCNCC2)c1 [Compound 13]	98 µM
CC[C@H](N)C(=O)NCCCC#Cc1ccccc1O [Compound 104]	8 µM
N[C@@H](Cn1cccn1)C(=O)NCCCC#Cc1cccc(OC2CCNCC2)c1 [Compound 19, (S)-2-amino-N-(5-(3-(piperidin-4-yloxy)phenyl)pent-4-ynyl)-3-(1H-pyrazol-1-yl)propanamide]	9.1 µM
CC[C@H](N)C(=O)NCCCC#Cc1cccc2ccccc12 [Compound 41]	2.53 µM
CC[C@@H](N)C(=O)NCCCC#Cc1cccc(OC2CCNCC2)c1 [Compound 71]	> 100 µM
CC[C@H](N)C(=O)NCCCC#Cc1ccc(C(F)(F)F)cc1 [Compound 58]	11 µM
CC[C@H](N)C(=O)NCCCC#Cc1ccc2c(c1)Cc1ccccc1-2 [Compound 101]	1.7 µM
CC[C@H](N)C(=O)NCCCC#Cc1ccccc1NC(C)=O [Compound 103]	5.4 µM
CC[C@H](N)C(=O)NCCCC#Cc1ccc(OC)c(OC)c1 [Compound 57]	17 µM
CC[C@H](N)C(=O)NCCCC#Cc1ccc(S(C)(=O)=O)cc1 [Compound 56, (S)-2-amino-N-(5-(4-(methylsulfonyl)phenyl)pent-4-ynyl)butanamide]	18 µM
CC(C)[C@H](N)C(=O)NCCCC#Cc1cccc(OC2CCNCC2)c1 [Compound 16, (S)-2-amino-3-methyl-N-(5-(3-(piperidin-4-yloxy)phenyl)pent-4-ynyl)butanamide]	12.8 µM
CC[C@H](N)C(=O)NCCCC#Cc1ccccc1-c1ccccc1 [Compound 61]	6.8 µM
CC[C@H](N)C(=O)NCCCC#Cc1ccc(-c2ccccc2)cc1 [Compound 81]	5.6 µM
CC[C@H](N)C(=O)NCCCC#Cc1ccc2c(c1)OCO2 [Compound 51]	15 µM
CC[C@H](N)C(=O)NCCCC#Cc1cccc(O[C@@H]2CCCNC2)c1 [Compound 78, (S)-2-amino-N-(5-(3-((R)-piperidin-3-yloxy)phenyl)pent-4-ynyl)butanamide]	3.9 µM
N[C@@H](CC1CC1)C(=O)NCCCC#Cc1cccc(OC2CCNCC2)c1 [Compound 11]	15.3 µM
N[C@@H](Cc1ccccc1)C(=O)NCCCC#Cc1cccc(OC2CCNCC2)c1 [Compound 1]	15.3 µM
CC[C@H](N)C(=O)NCCCC#Cc1cccc(OC2CCNCC2)c1 [Compound 9]	1.37 µM
